In PubChem BioAssay AID1419 (Emory University Molecular Libraries Screening Center, 2008):
Activity calls are given as the source filed them. No rule for the calls is given here.

Test: EBV protein-peptide binding inhibitors, dose response, biochemical, fluorescence polarization (AID 1419)
Settings: cell-free protein-peptide binding, 2 h; for fold change: measured here: P channel fold over control, at 54 µM

SMILES	IC50	fold change
CC(C)c1ccc(/C=C/C(=O)n2nnc3ccccc32)cc1	> 54 µM (inactive)	0.857
Cc1cc(C=C2C(=O)c3ccccc3C2=O)c(C)n1-c1ccc(Cl)cc1	8.5 µM	6.3
CCOC(=O)[C@@]1(C#N)C(c2ccc(Cl)c(Cl)c2)[C@H](C(N)=O)N2C=C(C(C)=O)C=C[C@H]21 (some centres not stated)	1.41 µM	9.48
Clc1ccc(OCc2nnc(-c3ccccc3Br)o2)c(Cl)c1	> 54 µM (inactive)	1
COc1cc([N+](=O)[O-])ccc1-c1ccc(/C=N/NC(=O)c2ccccc2O)o1	> 54 µM (inactive)	0.5
CCN(CC)c1nc2ccccc2nc1C(C#N)C(=O)NCCc1ccccc1 (configuration not stated)	1.37 µM	22
CCc1cc[n+](-c2nc3ccccc3nc2[N-]S(=O)(=O)c2ccc(Br)s2)cc1	3.71 µM	3.49
CCN(CC)CCN1C2=C(C(=O)CC(C)(C)C2)C(c2cccc(F)c2)C2=C1CC(C)(C)CC2=O	> 54 µM (inactive)	1.03
CC1=CC(C#N)(C#N)C(C#N)(C#N)C(c2ccccc2)N1 (configuration not stated)	< 0.42 µM	10
O=C(COC(=O)c1cccnc1)NC1CCCc2ccccc21 (configuration not stated)	> 54 µM (inactive)	1.84
Cc1cc(/C=C2\C(=O)NC(=O)N(c3cccc(Br)c3)C2=O)c(C)n1C	7.34 µM	9.43
CN1CCN(c2ccc([N+](=O)[O-])c3no[n+]([O-])c23)CC1	1.32 µM	11.6
COc1cccc(Nc2ncccc2C(=O)NCc2ccccc2)c1	2.59 µM	3.14
CCOc1ccc2[nH]c(=O)c(CN(CC3COCCO3)C(=O)C3CC3)cc2c1 (configuration not stated)	> 54 µM (inactive)	1.04
Cc1cccc2c3nc4ccccc4nc3n(CCCN3C(=O)c4ccccc4C3=O)c12	15.9 µM	3.01
CN(C)c1ccnc2sc(C(=O)c3ccc(Br)cc3)c(N)c12	> 54 µM (inactive)	0.973
Cc1noc(/C=C/c2ccc(-c3ccccc3Cl)o2)c1[N+](=O)[O-]	13.2 µM	7.6
O=C1c2ccccc2-c2ncnc3c(N4CCOCC4)cc(N4CCOCC4)c1c23	> 54 µM (inactive)	1.1
CN1/C(=C\C=C\C2=[N+](C)c3ccc4ccccc4c3C2(C)C)C(C)(C)c2ccccc21	3.78 µM	4.43

SMILES	IC50	fold change
Cc1ccc(N=Nc2[nH]c3ccccc3c2O)cc1	4.87 µM	27
CCOC(=O)C1C(=O)C=C(/C=C/c2ccc(N(C)C)cc2)CC1c1ccccc1 (configuration not stated)	> 54 µM (inactive)	7.93
CCn1c(C)cc(C=C2C(=O)c3ccccc3C2=O)c1C	16.2 µM	8.23
CCn1nc(-c2ccccc2)nc2c(=O)n(C)c(=O)nc1-2	4.3 µM	4.56
O=C1NC(=O)N(Cc2ccco2)C(=O)/C1=C/c1ccc(-c2cccc([N+](=O)[O-])c2)o1	16.5 µM	2.15
CN(C)c1ccc(/C=c2/sc3n(c2=O)NC2(c4ccccc4)N(C)C(=O)N(C)C2(c2ccccc2)N=3)cc1 (configuration not stated)	> 54 µM (inactive)	5.21
Cn1c(SCC(=O)Nc2ccc3nc(SCC(=O)N4CCCC4)sc3c2)nnc1-c1ccccc1	> 54 µM (inactive)	1.08
COc1cc(/C=N/c2oc(-c3ccccc3)cc2C#N)ccc1O	15.5 µM	10.2
CC(C)(C)c1cc[n+](-c2[nH]c(=O)sc2/C=N/NC([S-])=Nc2ccccc2)cc1	< 0.42 µM	13.6
O=C(N/N=C/c1ccccc1Cl)c1nc2ccc([N+](=O)[O-])cc2c(=O)[nH]1	> 54 µM (inactive)	0.977
O=C(OCCN1C(=O)c2cccc3c(N4CCOCC4)ccc(c23)C1=O)c1ccc(Cl)cc1Cl	1.81 µM	84.3
COc1ccc(C(=O)Nc2cccc(-c3cc4ccccc4oc3=O)c2)cc1[N+](=O)[O-]	> 54 µM (inactive)	0.607
Cc1cc2nc3c(=O)[nH]c(=O)[nH]c3nc2c([N+](=O)[O-])c1N	< 0.42 µM	67
CC(C)Nc1nc(Cl)nc(N(C#N)CN2C(=O)c3ccccc3S2(=O)=O)n1	> 54 µM (inactive)	0.923
CCOc1cc(/C=N/NC(=O)c2ccc(-c3csc(Nc4ccc(C)cc4)n3)cc2)ccc1OCC(=O)O	14.8 µM	1.08
O=C(O)COc1ccc(/C=N/NC(=O)c2ccc(-c3csc(Nc4ccc(Cl)cc4)n3)cc2)cc1	14.7 µM	1.13
CCOc1cccc(C2C(C(=O)c3ccc(C)o3)=C(O)C(=O)N2c2nccs2)c1 (configuration not stated)	< 0.42 µM	8.6
O=S(=O)(Nc1ccc2c(c1)OCCO2)c1cccc2cccnc12	> 54 µM (inactive)	0.963
N=C1/C(=C\c2ccc(-c3cccc(C(=O)O)c3)o2)C(=O)N=C2SC=C(c3ccccc3)N12	4.25 µM	1.23

SMILES	IC50	fold change
O=C(C1=NN(c2ccccc2)C2C(=O)N(c3ccccc3)C(=O)C12)c1ccccc1 (configuration not stated)	6.24 µM	3.88
CCN(CC)C(=O)/C(=C\c1ccc(Br)cc1)NC(=O)c1ccccc1OC	4.67 µM	1.15
CCCCCCn1c(=O)[nH]c2nc3cc(N)ccc3nc2c1=O	< 0.42 µM	85.8
COC(=O)c1cc(NC(=O)c2ccccc2)c(=O)oc1/C=C/Nc1ccc(Oc2ccccc2)cc1	1.4 µM	22
COc1ccc(NC(=O)CSc2nc3c(c(-c4cccs4)c2C#N)CN(C)CC3)cc1OC	> 54 µM (inactive)	1.37
COc1ccc(C(=O)c2sc3nc(C)cc(-c4cccs4)c3c2N)cc1	10.9 µM	10.2
CC(C)(C)N1CC(c2nc3ccccc3n2CCOc2ccccc2)CC1=O (configuration not stated)	15.4 µM	1.08
O=C1CCN2C=Nc3cccc4ccc1c2c34	< 0.42 µM	171
O=C(OCCN1C(=O)c2cccc3c(N4CCOCC4)ccc(c23)C1=O)c1cccc(Cl)c1	2.52 µM	56.6
Cc1cc(C)cc(-n2c(O)c(C=Nc3ccc(N4CCOCC4)cc3)c(=O)[nH]c2=S)c1	> 54 µM (inactive)	2.23
CCN(CC)c1ccc2cc(S(=O)(=O)c3ccc(Cl)cc3)c(=O)oc2c1	6.12 µM	98.4
CCn1c(O)c(/C=N/N=C/c2ccccc2)c2ccc(C3=NNC(=O)CC3)cc21	14.8 µM	9.01
O=C(CSc1ccccn1)Nc1ccc2c(c1)C(=O)c1ccccc1C2=O	19.4 µM	0.783
O=C(CCN1CCN(c2ccccc2)CC1)N/N=C/c1ccc(O)c(O)c1O	> 54 µM (inactive)	1.01
O=C1Nc2cc(Cl)cnc2N2CCCC12 (configuration not stated)	> 54 µM (inactive)	1.68
Cc1cccc(-n2c(SCc3cc(=O)n4ccsc4n3)nc3ccccc32)c1	2.79 µM	1.78
COc1ccc(C2C(C(=O)c3cccs3)=C(O)C(=O)N2c2nnc(C)s2)cc1OC (configuration not stated)	3.11 µM	10.8
O=C(CSc1ccsc1[N+](=O)[O-])Nc1cccc(F)c1	> 54 µM (inactive)	1.11
